Results on 36 compounds are retold here after US8067613B2 (Abbott Laboratories, priority 2007, dated 2011).

Molecules are shown by their SMILES.

The target in this test is T1, Recombinant Human Poly(ADP-Ribose)Polymerase (PARP), PARP-1 (Homo sapiens, UniProt P09874).
T1 construct: purchased Trevigen (Gaithersburg, Md.); host or cells: E. coli
T1 sequence (P09874 whole entry): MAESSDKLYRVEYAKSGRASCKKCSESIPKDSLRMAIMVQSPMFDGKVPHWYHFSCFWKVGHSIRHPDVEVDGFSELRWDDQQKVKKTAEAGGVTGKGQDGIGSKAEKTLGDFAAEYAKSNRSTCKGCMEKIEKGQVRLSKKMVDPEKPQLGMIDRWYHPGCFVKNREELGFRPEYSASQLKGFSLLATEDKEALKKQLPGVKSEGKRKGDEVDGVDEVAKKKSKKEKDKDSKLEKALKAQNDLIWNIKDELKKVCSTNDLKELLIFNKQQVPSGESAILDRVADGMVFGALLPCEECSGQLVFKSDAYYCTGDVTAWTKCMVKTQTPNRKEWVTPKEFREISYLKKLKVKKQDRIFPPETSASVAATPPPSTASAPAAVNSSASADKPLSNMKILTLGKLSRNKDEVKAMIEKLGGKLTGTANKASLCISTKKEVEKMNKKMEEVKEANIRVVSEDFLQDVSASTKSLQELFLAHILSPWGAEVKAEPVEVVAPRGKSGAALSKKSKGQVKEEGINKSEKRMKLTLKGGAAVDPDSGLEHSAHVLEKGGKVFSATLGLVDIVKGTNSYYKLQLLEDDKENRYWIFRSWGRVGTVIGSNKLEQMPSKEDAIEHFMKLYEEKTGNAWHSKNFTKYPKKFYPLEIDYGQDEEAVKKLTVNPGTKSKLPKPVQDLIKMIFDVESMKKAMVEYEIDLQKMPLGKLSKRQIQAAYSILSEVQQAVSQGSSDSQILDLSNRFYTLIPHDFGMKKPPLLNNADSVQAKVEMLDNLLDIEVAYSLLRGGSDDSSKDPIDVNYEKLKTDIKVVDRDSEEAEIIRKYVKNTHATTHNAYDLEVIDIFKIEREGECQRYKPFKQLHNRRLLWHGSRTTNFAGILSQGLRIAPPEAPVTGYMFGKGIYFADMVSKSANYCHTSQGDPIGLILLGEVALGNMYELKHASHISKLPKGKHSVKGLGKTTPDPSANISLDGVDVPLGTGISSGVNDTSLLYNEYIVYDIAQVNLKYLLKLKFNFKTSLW
Kind of test: PARP1 assay (SPA/FlashPlate, [3H]-NAD+ incorporation into biotinylated histone H1). The class given is biochemical. The settings on record: 1 nM PARP enzyme, 1.5 μM [3H]-NAD+, 200 nM biotinylated histone H1, 200 nM slDNA; Ki from inhibition curves at various substrate concentrations. How it is done:
Nicotinamide[2,5′,8-3H]adenine dinucleotide and strepavidin SPA beads were obtained from Amersham Biosiences (UK). Recombinant Human Poly(ADP-Ribose)Polymerase (PARP), purified from E. coli and 6-Biotin-17-NAD^+, were obtained from Trevigen (Gaithersburg, Md.). NAD^+, histone, aminobenzamide, 3-aminobenzamide and Calf Thymus DNA (dcDNA) were obtained from Sigma (St. Louis, Mo.). Stem loop oligonucleotide containing MCAT sequence was obtained from Qiagen. The oligos were dissolved to 1 mM in annealing buffer containing 10 mM Tris HCl (pH 7.5), 1 mM EDTA, and 50 mM NaCl, incubated for 5 minutes at 95° C. and annealed at 45° C. for 45 minutes. Histone H1 (95% electrophoretically pure) was obtained from Roche (Indianapolis, Ind. Biotinylated histone H1 was prepared by treating the protein with Sulfo-NHS-LC-Biotin (Pierce Rockford, Ill.). The biotinylation reaction was conducted by slowly and intermittently adding 3 equivalents of 10 mM Sulfo-NHS-LC-Biotin to 100 μM Histone H1 in phosphate-buffered saline, pH 7.5, at 4° C. with gentle vortexing over 1 minute then incubation at 4° C. for 1 hour. Streptavidin coated (FlashPlate Plus) microplates were obtained from Perkin Elmer (Boston, Mass.).
PARP1 assay was conducted in PARP assay buffer containing 50 mM tris (pH 8.0), 1 mM DTT and 4 mM MgCl2. PARP reactions contained 1.5 μM [^3H]-NAD^+ (1.6 μCi/mmol), 200 nM biotinylated histone H1, 200 nM slDNA, and 1 nM PARP enzyme. Auto reactions utilizing SPA bead-based detection were carried out in 100 μL volumes in white 96 well plates.
Reactions were initiated by adding 50 μL of 2×NAD^+ substrate mixture to 50 μL of 2× enzyme mixture containing PARP and DNA. These reactions were terminated by the addition of 150 μL of 1.5 mM benzamide (1000-fold over its IC50). 170 μL of the stopped reaction mixtures were transferred to streptavidin Flash Plates, incubated for 1 hour and counted using a TopCount microplate scintillation counter. The Ki data (in nM) for representative compounds of this invention were determined from inhibition curves at various substrate concentrations and are shown in TABLE 1.
Broadly, the Ki is the equilibrium dissociation constant of an inhibitor or competing ligand from its target. Turning to `CN1CCC[C@@H]1c1ccc(-c2nc3c(C(N)=O)cccc3[nH]2)s1` [Example 17, 2-(5-((2R)-1-methylpyrrolidin-2-yl)thien-2-yl)-1H-benzimidazole-4-carboxamide], the inhibitory constant (Ki) worked out at 10 nM. The result for `NC(=O)c1cccc2[nH]c(-c3ccc(-c4nnco4)cn3)nc12` [Example 51, 2-[5-(1,3,4-oxadiazol-2-yl)pyridin-2-yl]-1H-benzimidazole-4-carboxamide] reads 1.8 nM. For the compound `CCCN1CCCC1c1ccc(-c2nc3c(C(N)=O)cccc3[nH]2)s1` (stereo not drawn) [Example 37, 2-(5-(1-propylpyrrolidin-2-yl)thien-2-yl)-1H-benzimidazole-4-carboxamide], the Ki came out at 7 nM. In the case of `NC(=O)c1cccc2[nH]c(-c3ccc(C4CCCCN4C4CCC4)s3)nc12` (stereo not drawn) [Example 32, 2-(5-(1-cyclobutylpiperidin-2-yl)thien-2-yl)-1H-benzimidazole-4-carboxamide], the Ki amounted to 23 nM.

For `NC(=O)c1cccc2[nH]c(-c3ccc(C4CCCN4C4CCOCC4)nc3)nc12` (stereo not drawn) [Example 49, 2-[6-(1-tetrahydro-2H-pyran-4-ylpyrrolidin-2-yl),pyridin-3-yl]-1H-benzimidazole-4-carboxamide], the inhibition constant Ki was 17 nM. Take `CCCN1CCC(c2nc(-c3nc4c(C(N)=O)cccc4[nH]3)cs2)CC1` [Example 8, 2-(2-(1-propylpiperidin-4-yl)-1,3-thiazol-4-yl)-1H-benzimidazole-4-carboxamide]: the inhibition constant Ki was 50 nM.

For `NC(=O)c1cccc2[nH]c(-c3ccc(-c4cnco4)nc3)nc12` [Example 50, 2-[6-(1,3-oxazol-5-yl)pyridin-3-yl]-1H-benzimidazole-4-carboxamide], the inhibition constant Ki came to 0.8 nM. For the compound `CC(C)CN1CCCC1c1ccc(-c2nc3c(C(N)=O)cccc3[nH]2)s1` (stereo not drawn) [Example 39, 2-(5-(1-isobutylpyrrolidin-2-yl)thien-2-yl)-1H-benzimidazole-4-carboxamide], the inhibition constant (Ki) is 11 nM. The result for `NC(=O)c1cccc2[nH]c(-c3ccc(C4CCCN4C4CCCCC4)nc3)nc12` (stereo not drawn) [Example 48, 2-[6-(1-cyclohexylpyrrolidin-2-yl),pyridin-3-yl]-1H-benzimidazole-4-carboxamide] reads 14 nM; that for `NC(=O)c1cccc2[nH]c(-c3ccc(C4CCCN4C4CCC4)s3)nc12` (stereo not drawn) [Example 40, 2-(5-(1-cyclobutylpyrrolidin-2-yl)thien-2-yl)-1H-benzimidazole-4-carboxamide], 10 nM.

As for `NC(=O)c1cccc2[nH]c(-c3ccc(-c4cccnc4)s3)nc12` [Example 13, 2-(5-pyridin-3-ylthien-2-yl)-1H-benzimidazole-4-carboxamide], the Ki turned out to be 2.4 nM. In the case of `NC(=O)c1cccc2[nH]c(-c3ccc([C@H]4CCCN4Cc4ccncc4)s3)nc12` [Example 26, 2-(5-((2R)-1-(pyridin-4-ylmethyl)pyrrolidin-2-yl)thien-2-yl)-1H-benzimidazole-4-carboxamide], the inhibition constant Ki was 6 nM. The result for `CC(C)CN1CCCCC1c1ccc(-c2nc3c(C(N)=O)cccc3[nH]2)s1` (stereo not drawn) [Example 33, 2-(5-(1-isobutylpiperidin-2-yl)thien-2-yl)-1H-benzimidazole-4-carboxamide] reads 21 nM; that for `NC(=O)c1cccc2[nH]c(-c3ccc(C4CCCN4C4CCC4)nc3)nc12` (stereo not drawn) [Example 46, 2-[6-(1-cyclobutylpyrrolidin-2-yl),pyridin-3-yl]-1H-benzimidazole-4-carboxamide], 17 nM. The result for `NC(=O)c1cccc2[nH]c(-c3ccc([C@H]4CCCN4CC4CC4)s3)nc12` [Example 20, 2-(5-((2R)-1-(cyclopropylmethyl)pyrrolidin-2-yl)thien-2-yl)-1H-benzimidazole-4-carboxamide] reads 5 nM; that for `NC(=O)c1cccc2[nH]c(-c3ccc(C4CCCCN4CC4CC4)s3)nc12` (stereo not drawn) [Example 31, 2-(5-(1-(cyclopropylmethyl)piperidin-2-yl)thien-2-yl)-1H-benzimidazole-4-carboxamide], 11 nM. For the compound `NC(=O)c1cccc2[nH]c(-c3ccc(C4CCCN4)nc3)nc12` (stereo not drawn) [Example 43, 2-(6-pyrrolidin-2-ylpyridin-3-yl)-1H-benzimidazole-4-carboxamide], the Ki turned out to be 3 nM.

As to `CC(C)CN1CCC[C@@H]1c1ccc(-c2nc3c(C(N)=O)cccc3[nH]2)s1` [Example 27, 2-(5-((2R)-1-isobutylpyrrolidin-2-yl)thien-2-yl)-1H-benzimidazole-4-carboxamide], the inhibition constant Ki is 8 nM.

For `CC(C)CN1CCCC1c1ccc(-c2nc3c(C(N)=O)cccc3[nH]2)cn1` (stereo not drawn) [Example 45, 2-[6-(1-isobutylpyrrolidin-2-yl),pyridin-3-yl]-1H-benzimidazole-4-carboxamide], the inhibition constant (Ki) was 11 nM. Consider `NC(=O)c1cccc2[nH]c(-c3ccc([C@H]4CCCN4C4CCCC4)s3)nc12` [Example 22, 2-(5-((2R)-1-cyclopentylpyrrolidin-2-yl)thien-2-yl)-1H-benzimidazole-4-carboxamide], for which the Ki is 3 nM. Consider `NC(=O)c1cccc2[nH]c(-c3ccc([C@H]4CCCN4)s3)nc12` [Example 16, 2-(5-((2R)-pyrrolidin-2-yl)thien-2-yl)-1H-benzimidazole-4-carboxamide], for which the Ki turned out to be 6 nM.

Take `NC(=O)c1cccc2[nH]c(-c3ccc(C4CCCN4C4CCCCC4)s3)nc12` (stereo not drawn) [Example 42, 2-(5-(1-cyclohexylpyrrolidin-2-yl)thien-2-yl)-1H-benzimidazole-4-carboxamide]: the inhibition constant Ki came out at 12 nM.

Turning to `NC(=O)c1cccc2[nH]c(-c3ccc(-c4ncccn4)s3)nc12` [Example 12, 2-(5-pyrimidin-2-ylthien-2-yl)-1H-benzimidazole-4-carboxamide], the inhibition constant (Ki) stood at 9 nM. With `NC(=O)c1cccc2[nH]c(-c3csc(-c4ccncc4)n3)nc12` [Example 2], the inhibitory constant (Ki) was 11.8 nM. For `NC(=O)c1cccc2[nH]c(-c3ccc(C4CCCCN4)s3)nc12` (stereo not drawn) [Example 28, 2-(5-piperidin-2-ylthien-2-yl)-1H-benzimidazole-4-carboxamide], the Ki was determined as 7 nM. `NC(=O)c1cccc2[nH]c(-c3csc(-c4cccnc4)n3)nc12` [Example 1]: the inhibition constant (Ki) amounted to 14.5 nM. Under `NC(=O)c1cccc2[nH]c(-c3csc(C4CCNCC4)n3)nc12` [Example 5, 2-(2-piperidin-4-yl-1,3-thiazol-4-yl)-1H-benzimidazole-4-carboxamide] stands 32 nM; under `CC(C)N1CCCC1c1ccc(-c2nc3c(C(N)=O)cccc3[nH]2)s1` (stereo not drawn) [Example 36, 2-(5-(1-isopropylpyrrolidin-2-yl)thien-2-yl)-1H-benzimidazole-4-carboxamide], 5 nM; under `CCCN1CCCCC1c1ccc(-c2nc3c(C(N)=O)cccc3[nH]2)s1` (stereo not drawn) [Example 30, 2-(5-(1-propylpiperidin-2-yl)thien-2-yl)-1H-benzimidazole-4-carboxamide], 16 nM. Under `NC(=O)c1cccc2[nH]c(-c3ccc(C4CCCN4C4CCCC4)s3)nc12` (stereo not drawn) [Example 41, 2-(5-(1-cyclopentylpyrrolidin-2-yl)thien-2-yl)-1H-benzimidazole-4-carboxamide] stands 5 nM; under `CN1CCC(c2nc(-c3nc4c(C(N)=O)cccc4[nH]3)cs2)CC1` [Example 6, 2-(2-(1-methylpiperidin-4-yl)-1,3-thiazol-4-yl)-1H-benzimidazole-4-carboxamide], 45 nM.

For `CN1CCCCC1c1ccc(-c2nc3c(C(N)=O)cccc3[nH]2)s1` (stereo not drawn) [Example 29, 2-(5-(1-methylpiperidin-2-yl)thien-2-yl)-1H-benzimidazole-4-carboxamide], the Ki is 14 nM. Take `Cc1nc(-c2cnccn2)sc1-c1nc2c(C(N)=O)cccc2[nH]1` [Example 3, 2-(4-methyl-2-pyrazin-2-yl-1,3-thiazol-5-yl)-H-benzimidazole-4-carboxamide]: the inhibitory constant (Ki) was 28 nM. Regarding `CN1CCCC1c1ccc(-c2nc3c(C(N)=O)cccc3[nH]2)s1` (stereo not drawn) [Example 35, 2-(5-(1-methylpyrrolidin-2-yl)thien-2-yl)-1H-benzimidazole-4-carboxamide], the Ki was found to be 7 nM. Consider `NC(=O)c1cccc2[nH]c(-c3ccc([C@H]4CCCN4C4CCOCC4)s3)nc12` [Example 24, 2-(5-((2R)-1-tetrahydro-2H-pyran-4-ylpyrrolidin-2-yl)thien-2-yl)-1H-benzimidazole-4-carboxamide], for which the Ki was found to be 12 nM. Consider `NC(=O)c1cccc2[nH]c(-c3ccc(C4CCCN4CC4CC4)s3)nc12` (stereo not drawn) [Example 38, 2-(5-(1-(cyclopropylmethyl)pyrrolidin-2-yl)thien-2-yl)-1H-benzimidazole-4-carboxamide], for which the inhibition constant (Ki) stood at 6 nM.
